Series [1] has as its system male Wistar rats. The series is described as follows: Xylazine/ketamine-induced anesthesia test (surrogate measure of emesis). Conditions: for relative recovery time (duration of anesthesia, vehicle set at 100%), mean: 3.5 h before induction of anesthesia. Format: in vivo, rat. The text has this:
The mechanism of the emetic response associated with PDE4-Is is thought to be a consequence of the inhibition of PDE4 in non-target tissues. It is believed that PDE4-Is produce a pharmacological response analogous to that of presynaptic α2-adrenoreceptor inhibition by elevating intracellular levels of cAMP in noradrenergic neurons. Therefore, by removing an inhibitory mechanism, PDE4-Is are thought to modulate the release of mediators including 5-HT, substance P and noradrenaline involved in the onset of the emetic reflex mediated at emetic brainstem centers. PDE4-Is have the ability to reverse α2-adrenoreceptor agonist-mediated anesthesia with xylazine/ketamine in rodents (Robichaud et al., 2002). This effect is very likely mediated at the locus coeruleus in the brain stem. This confirms the postulate that PDE4-Is have effects similar to those of a2-adrenoreceptor antagonists. Since rodents are non-vomiting species, the ability of a PDE4-I to shorten a2-adrenergic receptor-mediated xylazine/ketamine anesthesia is therefore used as well-established surrogate measure of emesis in rodents.
Twenty four 3-4 month old male Wistar rats (Charles River, Sulzfeld, Germany) were used (average body weight at the beginning of the study: 365 g). All animals were housed individually in standard green line Tecniplast IVC cages on sawdust bedding. The animals were housed on a reversed 12/12-h light/dark cycle (lights on from 19:00 h to 07:00 h) and had free access to food and water. The rats were housed and tested in the same room. A radio, playing softly, provided background noise in the room. All testing was performed between 09:00 h and 18:00 h.
AP-61 was dissolved in 0.5% methylcellulose (MC) and 2% Tween 80. […] (injection volume was 2 ml/kg). […] The emetic properties of the PDE4-I rolipram are already assessed (Bruno et al., 2011). In the current study rolipram was used as a reference compound for AP-61 and applied in at dosages of 0.1 and 0.3 mg/kg. Rolipram was dissolved in 0.5% MC and 2% tween 80 (injection volume 2 ml/kg, route of administration was p.o.). For the induction of anesthesia, 10 mg/kg ketamine (Eurovet Animal Health, The Netherlands) and 10 mg/kg xylazine (CEVA Santé Animale, The Netherlands) were used (both administered i.p.). All solutions were prepared daily.
Rats were anesthetized with a combination of xylazine and ketamine (both 10 mg/kg, i.p). Fifteen minutes after induction of the anesthesia, rats were treated with rolipram or vehicle (0.1 or 0.3 mg/kg, p.o.) and the animals were placed in a dorsal position. The restoration of the righting reflex, i.e. when the animal no longer remained on its back and turned itself spontaneously to the prone position, was used as an endpoint to determine the duration of anesthesia. Animals that were not anesthetized after 15 min were excluded from the analysis.
AP-61 reached peak concentration at 5 h after oral administration. Because of this, induction of anesthesia with the combination of xylazine and ketamine was done 3.5 h after oral administration of AP-61. Animals were then placed in a dorsal position. The time delay to the recovery of the righting reflex was used as an endpoint to measure the duration of the anesthesia. Again, animals that were not anesthetized after 15 min were excluded from the analysis.
The restoration of the righting reflex, i.e. when the animal no longer remained on its back and turned itself spontaneously to the prone position (standing on four paws), was used as an endpoint to determine the duration to the anesthesia. Each test day a vehicle group was included. Outliers were removed from the analysis (Dixon-test). Each daily vehicle was set at 100% while the other treatment conditions of that day were expressed as a percentage of the vehicle. The following formula was used:
Duration of anesthesia after drug treatment (min)×(100/mean of duration of anesthesia of vehicle treatment (min)) […]

Series [2] in a line: Plasma Tmax after oral administration. The class given is in vivo.
Series [3] deals with male Wistar rats. The series is described as follows: Object recognition task (ORT), natural forgetting, 24-h interval. The class given is in vivo, rat. Conditions: 24 h delay, mean (SEM). As to the method: In example 1, the compound AP-61 a 7-(4-tert butyl-cyclohexyl)-imidazotriazione (a compound of the formula II) was tested in the ORT in 3-4 month old male Wistar rats using a 24-h interval between the trials to induce natural forgetting.
One group of twenty four 3-4 month old male Wistar rats (Charles River, Sulzfeld, Germany) were used (average body weight at the beginning of the study: 365 g). All animals were housed individually in standard green line Tecniplast IVC cages on sawdust bedding. The animals were housed on a reversed 12/12-h light/dark cycle (lights on from 19:00 h to 07:00 h) and had free access to food and water. The rats were housed and tested in the same room. A radio, playing softly, provided background noise in the room. All testing was performed between 09:00 h and 18:00 h.
AP-61 was dissolved in 0.5% methylcellulose (MC) and 2% Tween 80. The solutions were prepared daily. Doses of 0.01, 0.03 and 0.1 mg/kg of AP-61 or vehicle were administered p.o. (injection volume was 2 ml/kg), immediately after T1. […]
A testing session comprised two trials, each with durations of 3 min. […] The times spent in exploring each object during T1 and T2 were recorded manually with a personal computer. […]
The measures were the times spent by rats in exploring each object during T1 and T2. […] From these exploration times the following variables were calculated: e1, e2 and d2 (Table 1). […]

In general, Tmax refers to the time from dosing to the highest level. `CCc1nc(C2CCC(C(C)(C)C)CC2)n2nc(-c3ccccc3)[nH]c(=O)c12` (stereo not drawn) [AP61, 7-(4-tert-butylcyclohexyl)-5-ethyl-2-phenylimidazo[5,1-f][1,2,4]triazin-4(3H)-one]: the “relative recovery time (duration of anesthesia, vehicle set at 100%), mean” value with male Wistar rats [1] (AP61 0.03 mg/kg p.o.) turned out to be 97.16%; in the series on male Wistar rats [1] (AP61 0.1 mg/kg p.o.), 107.16%; in the series on male Wistar rats [1] (AP61 3.0 mg/kg p.o.), 108.37%. The “effect on duration of xylazine/ketamine-induced anesthesia compared with vehicle (summary)” value with male Wistar rats [1] (AP-61 0.03-3.0 mg/kg p.o., all doses) is recorded as “none of the doses led to a shortened duration”. Also, the “emetic properties / gastrointestinal toxicity (conclusion)” value in the series with male Wistar rats [1] (AP-61, all doses tested, within the effective dose range) is “does not show any signs of gastrointestinal toxicity”. In addition, in series [2], the time of peak concentration (Tmax) was 5 h. Moreover, the “d2, discrimination index between the new and familiar objects for T2” value was 0.10 (0.09) in the series on male Wistar rats [3] (AP61 0.01 mg/kg p.o. immediately after T1) and 0.01 (0.08) in the series with male Wistar rats [3] (AP61 0.1 mg/kg p.o. immediately after T1).

For the compound `COc1ccc(C2CNC(=O)C2)cc1OC1CCCC1` (stereo not drawn) [rolipram, reference compound], the “effect on duration of the xylazine/ketamine-induced anesthesia (summary)” value in the series on male Wistar rats [1] (oral rolipram, 2 mg/kg, 15 min after induction of anesthesia (so in the source)) is “significant reduction”.

Values taken from US20170119775A1, “TREATMENT OF COGNITIVE DISORDERS” (Algiax Pharmaceuticals GmbH, priority 2014, published 2017).
